Among the test systems are A498 renal; EKVX NSCLC; HCT-15 colon; HOP-92 NSCLC; MDA-N; NCI-H226 lung; NCI-H23 lung; SNB-75 CNS; U251 CNS; HCC-2998 colon; MALME-3M melanoma.
Common to all, as to test: inhibition of tumour cell growth, NCI panel, 48 h

Structures are written as SMILES.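 Protocol summary: plate cells (96-well), add compound at 5 concentrations, incubate 48 h, interpolate endpoints linearly. TGI denotes the concentration required for complete inhibition of growth.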

On to `CCCCCCCCCCCCCCCCOC[C@H](COC(c1ccccc1)(c1ccccc1)c1ccccc1)O[P+](=S)OC` (some centres not stated), for which the TGI with A498 renal, in the assay with EKVX NSCLC, in the assay with HCT-15 colon, in the assay on HOP-92 NSCLC, in the assay with MDA-N and in the assay on NCI-H226 lung was more than 100 µM in each case. The TGI in the assay with NCI-H23 lung, in the assay on SNB-75 CNS and in the assay with U251 CNS was more than 100 µM in each case.

Take `COc1cc(-c2cc(OC)c(OC)c3ccc(Br)cc23)c2cc(Br)ccc2c1OC`: the TGI in the assay on A498 renal is 44.9 µM; in the assay on EKVX NSCLC it was more than 100 µM; in the assay with HCC-2998 colon, 92 µM; in the assay on HCT-15 colon, more than 100 µM; with HOP-92 NSCLC it was 40.3 µM; with MALME-3M melanoma, 52.9 µM. In addition, the TGI was determined as 42.7 µM in the assay on MDA-N, 58.1 µM in the assay with NCI-H226 lung, 45 µM in the assay with NCI-H23 lung and 37.7 µM in the assay with U251 CNS.

Turning to `CCOC(=O)C(NC(=O)c1ccccc1)(Nc1ccc(S(=O)(=O)Nc2cc(C)on2)cc1)C(F)(F)F` (configuration not stated), the TGI in the assay with EKVX NSCLC, in the assay on HCC-2998 colon, in the assay on HCT-15 colon, in the assay on HOP-92 NSCLC, in the assay with MALME-3M melanoma and in the assay with MDA-N was more than 100 µM throughout. Moreover, the TGI in the assay on NCI-H226 lung was more than 100 µM; in the assay with NCI-H23 lung, more than 10 µM; in the assay with SNB-75 CNS it was more than 100 µM; with U251 CNS, more than 100 µM.

As for `CN(C)CCCNC(=O)N/N=C/c1ccccn1`, the TGI with A498 renal, with EKVX NSCLC, in the assay on HCC-2998 colon, in the assay with HCT-15 colon, with HOP-92 NSCLC and with MALME-3M melanoma was more than 10 µM in each case. Moreover, the TGI with MDA-N and in the assay with SNB-75 CNS was more than 10 µM throughout.

On to `Cn1c(COC(=O)NC2CCCCC2)c(COC(=O)NC2CCCCC2)c2ccc3ccccc3c21`, for which the TGI was 32 µM in the assay with A498 renal; more than 100 µM with EKVX NSCLC; more than 100 µM with HCT-15 colon; more than 100 µM in the assay with HOP-92 NSCLC; more than 100 µM in the assay on MALME-3M melanoma; more than 100 µM with MDA-N. Moreover, the TGI in the assay with NCI-H226 lung was 95.8 µM; in the assay with NCI-H23 lung it was 71.6 µM; with SNB-75 CNS, 78.9 µM; in the assay on U251 CNS it was more than 100 µM.

Consider `N#Cc1nc(-c2ccsc2)oc1N`, for which the TGI in the assay with A498 renal, in the assay on EKVX NSCLC, with HCT-15 colon, in the assay on HOP-92 NSCLC, in the assay on MDA-N and in the assay on SNB-75 CNS was more than 100 µM in each case. In addition, the TGI in the assay on U251 CNS was more than 100 µM.

Turning to `COC(=O)c1c2c(cc3c1CC1(Cc4cc5c(cc4C1)CCCC5)C3)CCCC2`, the TGI in the assay with A498 renal, with EKVX NSCLC, in the assay with HCC-2998 colon, in the assay with HCT-15 colon, in the assay on HOP-92 NSCLC and with MALME-3M melanoma was more than 100 µM in each case. Besides, the TGI in the assay on MDA-N, with NCI-H23 lung and in the assay on U251 CNS was more than 100 µM in each case.

In the case of `Cc1c(C)c2c(c(N)c1C#N)C(=O)N(NC(=S)Nc1ccccc1)C2=O`, the TGI with EKVX NSCLC, with HCC-2998 colon, in the assay on HCT-15 colon, in the assay on HOP-92 NSCLC, in the assay on MALME-3M melanoma and in the assay with MDA-N was more than 100 µM throughout. Besides, the TGI in the assay with NCI-H226 lung, with NCI-H23 lung, in the assay with SNB-75 CNS and in the assay on U251 CNS was more than 100 µM each time.

For the compound `CCOC(=O)/C=C(/OCC)[C@@H]1C(C(=O)c2ccc(Cl)cc2)[C@@H]1/C(=C\C(=O)OCC)OCC` (some centres not stated), the TGI in the assay on A498 renal was more than 100 µM; in the assay on EKVX NSCLC, more than 100 µM; in the assay with HCT-15 colon it was more than 100 µM; in the assay with HOP-92 NSCLC it was 17.9 µM; in the assay with MALME-3M melanoma, more than 100 µM; with MDA-N, more than 100 µM. For the same compound, the TGI with NCI-H226 lung is more than 100 µM; in the assay on NCI-H23 lung, 81.8 µM; with SNB-75 CNS, more than 100 µM; with U251 CNS, more than 100 µM.

Take `Cc1cc(C)nc(NS(=O)(=O)c2ccc(NC(=O)c3ccc4nc5ccccc5c(Nc5ccc(S(=O)(=O)N=C(N)N)cc5)c4c3)cc2)n1`: the TGI in the assay with EKVX NSCLC, in the assay with HCC-2998 colon, in the assay with HCT-15 colon, in the assay on HOP-92 NSCLC, in the assay with MALME-3M melanoma and with MDA-N was more than 100 µM each time. In addition, the TGI in the assay with NCI-H226 lung, with NCI-H23 lung, with SNB-75 CNS and in the assay on U251 CNS was more than 100 µM throughout.

On to `O=c1[nH]c2ccccc2c(=O)n1/N=C\c1ccccc1O`, for which the TGI with A498 renal, with EKVX NSCLC, in the assay with HCT-15 colon, in the assay on HOP-92 NSCLC, in the assay with MDA-N and with NCI-H226 lung was more than 100 µM throughout. Moreover, the TGI with NCI-H23 lung, with SNB-75 CNS and in the assay on U251 CNS was more than 100 µM in each case.

For `COC(=O)[C@]1(c2cc3ccccc3[nH]2)CC2CNC1C1OC(C)(C)OC21` (some centres not stated), the TGI with EKVX NSCLC, with HCC-2998 colon, in the assay on HCT-15 colon, in the assay with HOP-92 NSCLC, with MALME-3M melanoma and with MDA-N was more than 100 µM each time. Besides, the TGI in the assay on NCI-H226 lung, in the assay with NCI-H23 lung, with SNB-75 CNS and with U251 CNS was more than 100 µM throughout.

On to `COc1ccc(Nc2nc(N)c(C(=O)c3ccco3)s2)cc1`, for which the TGI was more than 61.1 µM in the assay on A498 renal; more than 100 µM in the assay with EKVX NSCLC; 71.9 µM in the assay with HCC-2998 colon; more than 100 µM with HCT-15 colon; more than 100 µM in the assay on HOP-92 NSCLC; more than 100 µM in the assay on MALME-3M melanoma. Further, the TGI was more than 100 µM with MDA-N, more than 72.2 µM with NCI-H226 lung, more than 100 µM with NCI-H23 lung and more than 100 µM in the assay with U251 CNS.

Turning to `Cc1cc(C)n(C(C)(C(=O)Cc2ccccc2)n2nc(C)cc2C)n1`, the TGI in the assay with A498 renal, with EKVX NSCLC, with HCC-2998 colon, in the assay on HCT-15 colon, in the assay with HOP-92 NSCLC and in the assay with MALME-3M melanoma was more than 100 µM each time. For the same compound, the TGI in the assay on MDA-N, in the assay with NCI-H226 lung, in the assay with NCI-H23 lung and in the assay with U251 CNS was more than 100 µM throughout.

The values above are taken from PubChem BioAssay (NCI).
